From US10981932B2, “Macrocyclic indole derivatives” (Bayer Aktiengesellschaft, priority 2016, dated 2021)
“And” between values parts separate entries of the source, which are not always exact repeats. Identical values can stand only once. Counter-ions that a name gives are not always drawn. Like-named read-outs stand apart in the source and are kept apart here.

Tests used:
SUDHL10 [1] = assay: Induction of caspase-3/7 activity (Caspase-Glo 3/7), SUDHL10; assay type: cell-based; conditions: caspase-3/7 induction, SUDHL10 cells, 3 h treatment, median
Method in brief: (§1)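 DLBCL cells treated with compounds for 3 h at 37 °C, then caspase-3/7 activity read by Caspase-Glo 3/7 luminescence. Medium-only background subtracted; EC50 fitted with C0 fixed at 1 and top set to the reference compound's maximal induction.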

SUDHL5 [2] = assay: Induction of cytotoxicity (CellTiter-Glo, 5 h), SUDHL5; conditions: read-out: Cytotox SUDHL5 [M] (median), SUDHL5 cells, cytotoxicity induction, CellTiter-Glo, median
SUDHL5 [3] = assay: Anti-proliferative effect (CellTiter-Glo, 72 h), SUDHL5; assay type: cell-based; conditions: SUDHL5 cells, antiproliferation, median, read-out: Antiproli SUDHL5 [M] (median)
Method in brief: (§2)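 Cells were treated with compounds for 72 h at 37 °C in a humidified incubator, and viability was measured by CellTiter-Glo luminescence. A parallel day 0 plate, read the same way, gave the time zero baseline.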

SUDHL5 [4] = assay: Induction of caspase-3/7 activity (Caspase-Glo 3/7), SUDHL5; assay type: cell-based; conditions: caspase-3/7 induction, SUDHL5 cells, 3 h treatment; median
Method in brief: as §1

MV-4-11 = assay: Anti-proliferative effect (CellTiter-Glo, 72 h), MV-4-11; assay type: cell-based; conditions: MV-4-11 cells, median, read-out: IC50 antiproliferation assay MV-4-11 [M] (median)
Method in brief: as §2

A2780 = assay: Anti-proliferative effect (CellTiter-Glo, 72 h), A2780; assay type: cell-based; conditions: A2780 cells, median, read-out: IC50 antiproliferation assay A2780 [M] (median)
Method in brief: as §2

MCL-1 = MCL-1 (Homo sapiens, UniProt Q07820); assay: Protein-protein interaction assay MCL-1/Noxa BH3 peptide (MCL-1 assay), TR-FRET; assay type: binding; conditions: MBP-MCL-1 / Noxa BH3-derived peptide, median
Method in brief: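 TR-FRET, 665/622 nm emission ratio (excitation 330–350 nm), measured MCL-1/Noxa complex formation. 1 nM MBP-MCL-1, 50 mM Tris/HCl pH 7, 0.1% BGG, 2 mM DTT. Incubation 1 h at 22 °C, then overnight at 4 °C. IC50 by 4-parameter regression, normalized to DMSO (0%) and no-MCL-1 (100%) controls.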

SUDHL10 [5] = assay: Induction of cytotoxicity (CellTiter-Glo, 5 h), SUDHL10
[6] = read-out: Cytotox SUDHL10 [M] (median), SUDHL10 cells, cytotoxicity induction, CellTiter-Glo, 5 h incubation, median
[7] = read-out: Cytotox SUDHL10 [M] (median), SUDHL10 cells, cytotoxicity induction, CellTiter-Glo, 5 h, median
[8] = Homo sapiens, SU-DHL-5, 72 h, 72 h
[9] = Homo sapiens, SU-DHL10, 5 h, read-out: Cytotox SUDHL10 [M] (median), SUDHL10 cells, cytotoxicity induction, CellTiter-Glo, 5 h, median

MCL-1, sequence (Q07820 whole entry): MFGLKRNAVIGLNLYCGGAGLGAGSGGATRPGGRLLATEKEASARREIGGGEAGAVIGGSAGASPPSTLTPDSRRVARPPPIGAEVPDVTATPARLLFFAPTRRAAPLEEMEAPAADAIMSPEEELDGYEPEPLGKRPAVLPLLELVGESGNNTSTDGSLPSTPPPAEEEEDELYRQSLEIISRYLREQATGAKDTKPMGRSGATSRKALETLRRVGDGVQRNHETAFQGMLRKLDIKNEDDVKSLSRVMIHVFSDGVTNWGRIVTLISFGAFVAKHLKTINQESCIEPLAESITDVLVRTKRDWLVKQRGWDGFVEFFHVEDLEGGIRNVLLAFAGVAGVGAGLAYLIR

Row | SMILES | EC50 (SUDHL10 [1]) | IC50 (SUDHL5 [3]; 72 h incubation) | EC50 (SUDHL5 [4]) | IC50 (MV-4-11) | IC50 (A2780) | IC50 (MCL-1) | IC50 (SUDHL5 [3]; 72 h) | IC50 (A2780; Homo sapiens, A2780, 72 h) | EC50 (SUDHL10 [1]; Homo sapiens, SU-DHL10, 3 h) | IC50 (SUDHL5 [3]; [8]) | IC50 (MV-4-11; Homo sapiens, MV4-11, 72 h) | IC50 (SUDHL5 [3]; Homo sapiens, SU-DHL-5, 72 h, 72 h incubation) | IC50 (SUDHL5 [2]; 5 h incubation) | IC50 (SUDHL10 [5]; [6]) | IC50 (SUDHL5 [2]; 5 h) | IC50 (SUDHL10 [5]; [7]) | IC50 (SUDHL10 [5]; [9]) | IC50 (SUDHL10 [5]; Homo sapiens, SU-DHL10, 5 h, read-out: Cytotox SUDHL10 [M] (median), SUDHL10 cells, cytotoxicity induction, CellTiter-Glo, 5 h incubation, median)
1 | Cc1c2c(nn1CCN1CCOCC1)COCCCCn1c(C(=O)O)c(CCCOc3cccc4cc(F)ccc34)c3cccc-2c31 (single isomer, unassigned) [Example 286, (−)-7-{3-[(6-fluoronaphthalen-1-yl)oxy]propyl}-3-methy-2-[2-(morpholin-4-yl)ethyl]-2,10,11,12,13,15-hexahydropyrazolo[4′,3′:9,10][1,6]oxazacycloundecino[8,7,6-hi]indole-8-carboxylic acid-N-ethylethanamine Salt] | > 33 µM | 5.11e-06 M | 11.8 µM | 1.73e-05 M | 1.26e-05 M | 0.0272 µM |  |  |  |  |  |  | 1.2e-05 M | > 3.3e-05 M |  |  |  | 
2 | Cc1ccc2c(CCCOc3cccc4cc(F)ccc34)c(C(=O)O)n3c2c1-c1c(nn(CCN2CCOCC2)c1C)COCCCC3 (single isomer, unassigned) [Example 293, (+)-7-{3-[(6-fluoronaphthalen-1-yl)oxy]propyl}-3,4-dimethyl-2-[2-(morpholin-4-yl)ethyl]-2,10,11,12,13,15-hexahydropyrazolo[4′,3′:9,10][1,6]oxazacycloundecino[8,7,6-hi]indole-8-carboxylic acid-N-ethylethanamine Salt] | 0.947 µM |  | 0.309 µM | 2.08e-06 M |  | 0.000676 µM | 6.43e-07 M | 1.08e-05 M |  |  |  |  |  |  | 4.23e-07 M | 9.88e-07 M |  | 
3 | Cc1ccc2c(CCCOc3cccc4cc(F)ccc34)c(C(=O)O)n3c2c1-c1c(nn(CCN2CCOCC2)c1C)COCCCC3 (single isomer, unassigned) [Example 294, (−)-7-{3-[(6-fluoronaphthalen-1-yl)oxy]propyl}-3,4-dimethyl-2-[2-(morpholin-4-yl)ethyl]-2,10,11,12,13,15-hexahydropyrazolo[4′,3′:9,10][1,6]oxazacycloundecino[8,7,6-hi]indole-8-carboxylic acid-N-ethylethanamine Salt] | 10.8 µM |  | 6.95 µM | 1.53e-05 M | 1.88e-05 M | 0.00579 µM | 5.96e-06 M |  |  |  |  |  |  |  | 5.95e-06 M | 1.08e-05 M |  | 
4 | CCc1nn(C)c2c1-c1cccc3c(CCCOc4cccc5c(F)cccc45)c(C(=O)O)n(c13)CCCCOC2 (single isomer, unassigned) [Example 299, 3-ethyl-7-{3-[(5-fluoronaphthalen-1-yl)oxy]propyl}-1-methyl-1,10,11,12,13,15-hexahydropyrazolo[4′,3′:9,10][1,6]oxazacycloundecino[8,7,6-hi]indole-8-carboxylic Acid] |  |  | > 33 µM |  |  | 0.166 µM |  | 2.32e-05 M | > 33 µM | 7.39e-06 M | 2.63e-05 M |  |  |  | > 3.3e-05 M |  | > 3.3e-05 M | 
5 | CCc1nn(C)c2c1-c1cccc3c(CCCOc4cccc5c(F)cccc45)c(C(=O)O)n(c13)CCCCOC2 (single isomer, unassigned) [Example 300, 3-ethyl-7-{3-[(5-fluoronaphthalen-1-yl)oxy]propyl}-1-methyl-1,10,11,12,13,15-hexahydropyrazolo[4′3′:9,10][1,6]oxazacycloundecino[8,7,6-hi]indole-Carboxylic Acid] | 20.7 µM |  | 3.93 µM | 2.15e-05 M | > 3.3e-05 M | 0.00127 µM | 5.13e-06 M |  |  |  |  |  |  |  | 5.8e-06 M | 2.25e-05 M |  | 
6 | Cn1nc2c(c1CN1CCOCC1)-c1cccc3c(CCCOc4cccc5ccccc45)c(C(=O)O)n(c13)CCCCOC2 (single isomer, unassigned; enantiomer 1) [Example 079, 2-methyl-3-(morpholin-4-ylmethyl)-7-[3-(naphthalen-1-yloxy)propyl]-2,10,11,12,13,15-hexahydropyrazolo[4′,3′:9,10][1,6]oxazacycloundecino[8,7,6-hi]indole-8-carboxylic acid-N-ethylethanamine Salt (Enantiomer 1)] | 9.85 µM | 6.7e-06 M | 3.85 µM | 2.37e-06 M |  | 0.00325 µM |  | 1.66e-05 M |  |  |  |  | 4.24e-06 M | 8.83e-06 M |  |  |  | 
7 | COCCn1nc(C2CC2)c2c1COCCCCn1c(C(=O)O)c(CCCOc3cccc4c3CCCC4)c3cccc-2c31 (single isomer, unassigned; enantiomer 1) [Example 165, 3-Cyclopropyl-1-(2-methoxyethyl)-7-[3-(5,6,7,8-tetrahydronaphthalen-1-yloxy)propyl]-1,10,11,12,13,15-hexahydropyrazolo[4′,3′:9,10][1,6]oxazacycloundecino[8,7,6-hi]indole-8-carboxylic acid-N-ethylethanamine Salt (Enantiomer 1)] |  |  | 5.25 µM | 8.15e-06 M |  | 0.00289 µM |  | 2.15e-05 M | 19.1 µM |  |  | 1.13e-05 M | 5.71e-06 M |  |  |  |  | 2.37e-05 M
8 | CCc1c2c(nn1CCN1CCOCC1)COCCCCn1c(C(=O)O)c(CCCOc3cccc4ccccc34)c3ccc(C)c-2c31 (single isomer, unassigned; enantiomer 1) [Example 205, 3-ethyl-4-methyl-[2-(2-(morpholin-4-yl)ethyl]-7-[3-(naphthalen-1-yloxy)propyl]-2,10,11,12,13,15-hexahydropyrazolo[4′3′:9,10][1,6]oxazacycloundecino[8,7,6-hi]indole-8-carboxylic Acid (Enantiomer 1)] | 2.49 µM | 2e-06 M | 1.33 µM | 2.83e-06 M | 1.03e-05 M | 0.00165 µM |  |  |  |  |  |  | 1.38e-06 M | 2.92e-06 M |  |  |  | 

Now from value to compound, other results behind:

Row | EC50 (SUDHL10 [1]) | IC50 (SUDHL5 [3]; 72 h incubation) | EC50 (SUDHL5 [4]) | IC50 (MV-4-11) | IC50 (A2780) | IC50 (MCL-1) | IC50 (SUDHL5 [3]; 72 h) | IC50 (A2780; Homo sapiens, A2780, 72 h) | EC50 (SUDHL10 [1]; Homo sapiens, SU-DHL10, 3 h) | IC50 (SUDHL5 [3]; [8]) | IC50 (MV-4-11; Homo sapiens, MV4-11, 72 h) | IC50 (SUDHL5 [3]; Homo sapiens, SU-DHL-5, 72 h, 72 h incubation) | SMILES | IC50 (SUDHL5 [2]; 5 h incubation) | IC50 (SUDHL10 [5]; [6]) | IC50 (SUDHL5 [2]; 5 h) | IC50 (SUDHL10 [5]; [7]) | IC50 (SUDHL10 [5]; [9]) | IC50 (SUDHL10 [5]; Homo sapiens, SU-DHL10, 5 h, read-out: Cytotox SUDHL10 [M] (median), SUDHL10 cells, cytotoxicity induction, CellTiter-Glo, 5 h incubation, median)
9 | > 33 µM | 8.33e-06 M | 30.7 µM and > 33 µM | 1.46e-05 M | 1.5e-05 M | 0.0444 µM |  |  |  |  |  |  | CCc1c2c(nn1C)COCCCCn1c(C(=O)O)c(CCCOc3cccc4cc(F)ccc34)c3cccc-2c31 (single isomer, unassigned) [Example 283] | 2.17e-05 M | 3.05e-05 M |  |  |  | 
10 | > 33 µM |  | > 33 µM | 1.89e-05 M | 2.23e-05 M | 0.106 µM | 1.05e-05 M |  |  |  |  |  | CCc1nn(C)c2c1-c1cccc3c(CCCOc4cccc5cc(F)ccc45)c(C(=O)O)n(c13)CCCCOC2 (single isomer, unassigned) [Example 289, (−)-3-ethyl-7-{3-[(6-fluoronaphthalen-1-yl)oxy]propyl}-1-methyl-1,10,11,12,13,15-hexahydropyrazolo[4′,3′:9,10][1,6]oxazacycloundecino[8,7,6-hi]indole-8-carboxylic Acid] |  |  | 2.9e-05 M and > 3.3e-05 M | > 3.3e-05 M |  | 
11 |  |  | 3.23 µM |  |  | 0.00331 µM |  | 2.07e-05 M | 18.7 µM | 5.2e-06 M | 1.52e-05 M |  | Cc1c2c(nn1C)COCCCCn1c(C(=O)O)c(CCCOc3cccc4cc(Cl)ccc34)c3cccc-2c31 (single isomer, unassigned) [Example 296, (+)-7-{3-[(6-chloronaphthalen-1-yl)oxy]propyl}-2,3-dimethyl-2,10,11,12,13,15-hexahydropyrazolo[4′,3′:9,10][1,6]Oxazacycloundecino[8,7,6-hi]indole-8-carboxylic acid-N-ethylethanamine Salt] |  |  | 5.31e-06 M |  | 1.43e-05 M | 
12 | > 33 µM |  | > 33 µM | 1.9e-05 M | 1.33e-05 M | 0.126 µM | 5.16e-06 M |  |  |  |  |  | Cc1c2c(nn1C)COCCCCn1c(C(=O)O)c(CCCOc3cccc4cc(Cl)ccc34)c3cccc-2c31 (single isomer, unassigned) [Example 297, (−)-7-{3-[(6-chloronaphthalen-1-yl)oxy]propyl}-2,3-dimethyl-2,10,11,12,13,15-hexahydropyrazolo[4′3′:9,10][1,6]oxazacycloundecino[8,7,6-hi]indole-8-carboxylic acid-N-ethylethanamine Salt] |  |  | 2.83e-05 M | 2.77e-05 M |  | 
